Experimental data as given in US8476265B2, “Compounds-801” (AstraZeneca AB, priority 2010, dated 2013).
Where a name gives a salt, the structure may show the parent alone.

Experiments:
Adrenergic β2 = target: T1, Adrenergic β2 (Homo sapiens, UniProt P07550); assay: Adrenergic β2 mediated cAMP production in H292 cells (AlphaScreen), concentration response; type: cell-based; conditions: for EC50: 60 min, 300 μM rolipram, read-out: β2 pEC50 (converted); for β2 Intrinsic Activity: fraction relative to the maximum activity determined for formoterol
T1 construct: Adherent H292 cells are removed from tissue culture flasks by treatment with Accutase™ cell detachment solution; endogenous in cells; host or cells: H292 cells
T1 sequence (P07550 whole entry): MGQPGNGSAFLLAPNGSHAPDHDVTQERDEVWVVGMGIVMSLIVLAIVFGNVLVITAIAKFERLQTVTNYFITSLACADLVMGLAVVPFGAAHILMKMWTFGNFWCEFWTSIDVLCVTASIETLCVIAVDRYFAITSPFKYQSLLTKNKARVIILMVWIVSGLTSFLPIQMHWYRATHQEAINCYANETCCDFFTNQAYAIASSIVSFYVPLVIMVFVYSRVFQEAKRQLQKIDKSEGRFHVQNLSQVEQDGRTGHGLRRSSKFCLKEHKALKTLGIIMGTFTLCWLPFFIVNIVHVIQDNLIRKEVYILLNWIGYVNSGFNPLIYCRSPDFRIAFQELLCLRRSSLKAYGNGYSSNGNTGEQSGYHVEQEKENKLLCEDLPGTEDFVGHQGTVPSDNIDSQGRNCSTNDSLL
Protocol: Assay for Adrenergic 132 Mediated cAMP Production
H292 cells are grown in 225 cm2 flasks incubator at 37° C., 5% CO2 in RPMI medium containing 10% (v/v) FBS (foetal bovine serum) and 2 mM L-glutamine.
Adherent H292 cells re removed from tissue culture flasks by treatment with Accutase™ cell detachment solution for 15 minutes. Flasks are incubated for 15 minutes in a humidified incubator at 37° C., 5% CO2. Detached cells are re-suspended in RPMI media (containing 10% (v/v) FBS and 2 mM L-glutamine) at 0.1×10^6 cells per mL. 10000 cells in 100 μl, are added to each well of a tissue-culture-treated 96-well plate and the cells incubated overnight in a humidified incubator at 37° C., 5% CO2. The culture media is removed and cells are washed twice with 100 μL assay buffer and replaced with 50 μl assay buffer (HBSS solution containing 10 mM HEPES pH7.4 and 5 mM glucose). Cells are rested at room temperature for 20 minutes after which time 25 μl of rolipram (1.2 mM made up in assay buffer containing 2.4% (v/v) dimethylsulphoxide) is added. Cells are incubated with rolipram for 10 minutes after which time test compounds are added and the cells are incubated for 60 minutes at room temperature. The final rolipram concentration in the assay is 300 μM and final vehicle concentration is 1% (v/v) dimethylsulphoxide. The reaction is stopped by removing supernatants, washing once with 100 μL assay buffer and replacing with 50 μL lysis buffer. The cell monolayer is frozen at −80° C. for 30 minutes (or overnight).
AlphaScreen™ cAMP detection
The concentration of cAMP (cyclic adenosine monophosphate) in the cell lysate is determined using AlphaScreen™ methodology. The frozen cell plate is thawed for 20 minutes on a plate shaker then 10 μL of the cell lysate is transferred to a 96-well white plate. 40 μL of mixed AlphaScreen™ detection beads pre-incubated with biotinylated cAMP, is added to each well and the plate incubated at room temperature for 3 hours in the dark. The AlphaScreen™ signal is measured using an EnVision spectrophotometer (Perkin-Elmer Inc.) with the recommended manufacturer's settings. cAMP concentrations are determined by reference to a calibration curve determined in the same experiment using standard cAMP concentrations. Concentration response curves for agonists are constructed and data is fitted to a four parameter logistic equation to determine both the pEC50 and Intrinsic Activity. Intrinsic Activity is expressed as a fraction relative to the maximum activity determined for formoterol in each experiment.

[1] = target: T2, human muscarinic acetylcholine M3 receptor (Homo sapiens, UniProt P20309); assay: Muscarinic 3 receptor binding assay ([3H]NMS competition, SPA), pIC50; conditions: [3H]NMS 0.1 nM, CHO-K1 cell membranes expressing human M3 receptor
T2 construct: expressed in transfected cells; host or cells: CHO-K1 (Chinese Hamster Ovary) cell membranes
T2 sequence (P20309 whole entry): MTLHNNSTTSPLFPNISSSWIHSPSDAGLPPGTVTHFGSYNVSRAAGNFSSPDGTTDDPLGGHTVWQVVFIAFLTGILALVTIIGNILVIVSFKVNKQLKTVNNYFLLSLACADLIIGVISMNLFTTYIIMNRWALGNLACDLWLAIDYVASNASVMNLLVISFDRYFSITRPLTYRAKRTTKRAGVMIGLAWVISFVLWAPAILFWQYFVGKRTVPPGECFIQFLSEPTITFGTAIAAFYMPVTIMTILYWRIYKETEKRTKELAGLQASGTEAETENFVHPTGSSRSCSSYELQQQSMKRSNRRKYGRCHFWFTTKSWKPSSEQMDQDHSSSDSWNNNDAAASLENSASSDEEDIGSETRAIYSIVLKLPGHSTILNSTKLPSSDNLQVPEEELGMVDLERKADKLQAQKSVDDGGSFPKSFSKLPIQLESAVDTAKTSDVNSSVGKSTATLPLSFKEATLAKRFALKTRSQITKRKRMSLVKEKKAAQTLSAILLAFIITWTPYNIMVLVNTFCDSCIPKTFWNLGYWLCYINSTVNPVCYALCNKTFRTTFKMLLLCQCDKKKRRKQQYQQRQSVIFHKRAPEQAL
Protocol: Muscarinic 3 Receptor Binding Assay
The affinity (pIC50) of compounds binding to the M3 receptor is determined by competition binding of [^3H]N-methyl scopolamine (NMS) to CHO-K1 (Chinese Hamster Ovary) cell membranes expressing the human muscarinic acetylcholine M3 receptor (M3-ACh) in a scintillation proximity assay (SPA) format.
SPA beads are precoated with membranes and then incubated at 2 mg of beads per well with serial dilutions of compounds of the invention, [^3H]NMS at 0.1 nM, quarter Kd (experimentally determined dissociation constant) and assay buffer (20 mM HEPES pH 7.4 containing 5 mM MgCl2 and 0.1% (w/v) bovine serum albumin). The assay is conducted in a final volume of 200 μL, in the presence of 1% (v/v) dimethyl sulphoxide (DMSO). Total binding of [^3H]NMS is determined in the absence of competing compound and non-specific binding of [^3H]NMS is determined in the presence of 1 μM atropine. The plates are incubated for 16 hours at room temperature and then read on Wallac Microbeta™ using a normalised ^3H protocol. The pIC50, defined as the negative logarithm of the molar concentration of compound required for 50% reduction in specific [^3H]-NMS binding, is determined.

| EC50 (Adrenergic β2) [nM] | β2 Intrinsic Activity (Adrenergic β2) | IC50 [1] [nM] | Structure (SMILES) |
| --- | --- | --- | --- |
| 158 | 0.9 | 3.16 | CC(C)c1nc(C(=O)N2CCOC3(CCN(Cc4cc(CCOCCC(=O)N(CCNCCc5ccc(O)c6c5OCC(=O)N6)C5CCCCC5)ccc4Cl)CC3)C2)cs1 [Example 49, 3-(4-Chloro-3-((4-(2-isopropylthiazole-4-carbonyl)-1-oxa-4,9-diazaspiro[5.5]undecan-9-yl)methyl)phenethoxy)-N-cyclohexyl-N-(2-(2-(5-hydroxy-3-oxo-3,4-dihydro-2H-benzo[b][1,4]oxazin-8-yl)ethylamino)ethyl)propanamide ditrifluoroacetate] |
| 50.1 | 1.0 | 0.126 | COCCN(CCNCCc1ccc(O)c2c1OCC(=O)N2)C(=O)CCOCCc1cccc(CN2CCC3(CC2)CN(C(=O)c2csc(C(C)C)n2)CCO3)c1Cl [Example 70, 3-(2-Chloro-3-((4-(2-isopropylthiazole-4-carbonyl)-1-oxa-4,9-diazaspiro[5.5]undecan-9-yl)methyl)phenethoxy)-N-(2-(2-(5-hydroxy-3-oxo-3,4-dihydro-2H-benzo[b][1,4]oxazin-8-yl)ethylamino)ethyl)-N-(2-methoxyethyl)propanamide ditrifluoroacetate] |
| 31.6 | 0.9 | 0.126 | CC(C)c1nc(C(=O)N2CCOC3(CCN(Cc4cccc(CCOCCC(=O)N(CCF)CCNCCc5ccc(O)c6c5OCC(=O)N6)c4F)CC3)C2)cs1 [Example 72, 3-(2-Fluoro-3-((4-(2-isopropylthiazole-4-carbonyl)-1-oxa-4,9-diazaspiro[5.5]undecan-9-yl)methyl)phenethoxy)-N-(2-fluoroethyl)-N-(2-(2-(5-hydroxy-3-oxo-3,4-dihydro-2H-benzo[b][1,4]oxazin-8-yl)ethylamino)ethyl)propanamide ditrifluoroacetate] |
| 63.1 | 1.1 | 0.316 | Cc1ccccc1CN(CCNCCc1ccc(O)c2c1OCC(=O)N2)C(=O)CCOCCc1cccc(CN2CCC3(CC2)CN(C(=O)c2csc(C(C)C)n2)CCO3)c1F [Example 21, 3-(2-Fluoro-3-((4-(2-isopropylthiazole-4-carbonyl)-1-oxa-4,9-diazaspiro[5.5]undecan-9-yl)methyl)phenethoxy)-N-(2-(2-(5-hydroxy-3-oxo-3,4-dihydro-2H-benzo[1)][1,4]oxazin-8-yl)ethylamino)ethyl)-N-(2-methylbenzyl)propanamide ditrifluoroacetate] |
| 50.1 | 1.0 | 0.316 | CC(C)c1nc(C(=O)N2CCOC3(CCN(Cc4cccc(CCOCCC(=O)N(CCNCCc5ccc(O)c6c5OCC(=O)N6)CCC(C)(C)C)c4F)CC3)C2)cs1 [Example 17, N-(3,3-Dimethylbutyl)-3-(2-fluoro-3-((4-(2-isopropylthiazole-4-carbonyl)-1-oxa-4,9-diazaspiro[5.5]undecan-9-yl)methyl)phenethoxy)-N-(2-(2-(5-hydroxy-3-oxo-3,4-dihydro-2H-benzo[b][1,4]oxazin-8-yl)ethylamino)ethyl)propanamide ditrifluoroacetate] |
| 100 | 0.7 | 0.2 | CCN(CCNCCc1ccc(O)c2c1OCC(=O)N2)C(=O)CCOCCc1cccc(CN2CCC3(CC2)CN(C(=O)c2csc(C(C)C)c2)CCO3)c1F [Example 74, N-Ethyl-3-(2-fluoro-3-((4-(5-isopropylthiophene-3-carbonyl)-1-oxa-4,9-diazaspiro[5.5]undecan-9-yl)methyl)phenethoxy)-N-(2-(2-(5-hydroxy-3-oxo-3,4-dihydro-2H-benzo[b][1,4]oxazin-8-yl)ethylamino)ethyl)propanamide ditrifluoroacetate] |

Further lines, the compound ahead of its results:

| Structure (SMILES) | EC50 (Adrenergic β2) [nM] | β2 Intrinsic Activity (Adrenergic β2) | IC50 [1] [nM] |
| --- | --- | --- | --- |
| Cc1cc(C(=O)N2CCOC3(CCN(Cc4cccc(CCOCCC(=O)N(CCNCCc5ccc(O)c6c5OCC(=O)N6)C5CCCCC5)c4)CC3)C2)cs1 [Example 85, N-Cyclohexyl-N-(2-(2-(5-hydroxy-3-oxo-3,4-dihydro-2H-benzo[b][1,4]oxazin-8-yl)ethylamino)ethyl)-3-(3-((4-(5-methylthiophene-3-carbonyl)-1-oxa-4,9-diazaspiro[5.5]undecan-9-yl)methyl)phenethoxy)propanamide] | 126 | 0.9 | 0.126 |
| CC(C)c1nc(C(=O)N2CCOC3(CCN(CCOc4ccc(CCOCCC(=O)N(CCNCCc5ccc(O)c6c5OCC(=O)N6)C5CCCCC5)cc4)CC3)C2)cs1 [Example 51, N-Cyclohexyl-N-(2-(2-(5-hydroxy-3-oxo-3,4-dihydro-2H-benzo[b][1,4]oxazin-8-yl)ethylamino)ethyl)-3-(4-(2-(4-(2-isopropylthiazole-4-carbonyl)-1-oxa-4,9-diazaspiro[5.5]undecan-9-yl)ethoxy)phenethoxy)propanamide ditrifluoroacetate] | 63.1 | 1.1 | 3.98 |
| CC(C)c1nc(C(=O)N2CCOC3(CCN(CCc4ccc(CCOCCC(=O)N(CCNCCc5ccc(O)c6c5OCC(=O)N6)C5CCCCC5)cc4)CC3)C2)cs1 [Example 2, N-Cyclohexyl-N-(2-(2-(5-hydroxy-3-oxo-3,4-dihydro-2H-benzo[b][1,4]oxazin-8-yl)ethylamino)ethyl)-3-(4-(2-(4-(2-Isopropylthiazole-4-carbonyl)-1-oxa-4,9-diazaspiro[5.5]undecan-9-371)ethyl)phenethoxy)propanamide ditrifluoroacetate] | 31.6 | 0.9 | 1 |
| CC(C)c1nc(C(=O)N2CCOC3(CCN(Cc4cccc(SCCCOCCC(=O)N(CCNCCc5ccc(O)c6c5OCC(=O)N6)C5CCCC5)c4)CC3)C2)cs1 [Example 54, N-Cyclopentyl-N-(2-(2-(5-hydroxy-3-oxo-3,4-dihydro-2H-benzo[b][1,4]oxazin-8-yl)ethylamino)ethyl)-3-(3-(3-((4-(2-isopropylthiazole-4-carbonyl)-1-oxa-4,9-diazaspiro[5.5]undecan-9-yl)methyl)phenylthio)propoxy)propanamide ditrifluoroacetate] | 100 | 0.9 | 0.1 |
| CCN(CCNCCc1ccc(O)c2c1OCC(=O)N2)C(=O)CCOCCc1cccc(CCN2CC3(C2)CN(C(=O)c2csc(C(C)C)n2)CCO3)c1 [Example 177, N-ethyl-N-(2-(2-(5-hydroxy-3-oxo-3,4-dihydro-2H-benzo[b][1,4]oxazin-8-yl)ethylamino)ethyl)-3-(3-(2-(8-(2-isopropylthiazole-4-carbonyl)-5-oxa-2,8-diazaspiro[3.5]nonan-2-yl)ethyl)phenethoxy)propanamide, trifluoroacetate salt] | 10 | 1.1 | 1.26 |
| CC(C)c1nc(C(=O)N2CCOC3(CCN(CCc4cccc(CCOCCC(=O)N(CCNCCc5ccc(O)c6c5OCC(=O)N6)C5CCCC5)c4)CC3)C2)cs1 [Example 39, N-Cyclopentyl-N-(2-(2-(5-hydroxy-3-oxo-3,4-dihydro-2H-benzo[b][1,4]oxazin-8-yl)ethylamino)ethyl)-3-(3-(2-(4-(2-isopropylthiazole-4-carbonyl)-1-oxa-4,9-diazaspiro[5.5]undecan-9-yl)ethyl)phenethoxy)propanamide ditrifluoroacetate] | 10 | 1.0 | 1 |
